Results reported in the NIST ThermoML archive (doi:10.1021/je9000608).
Numbers after ± are expanded uncertainties.

Key:
[1] = Liquid; for mass density: 101.33 kPa, Pycnometric method; for vapor or sublimation pressure: Ebulliometric method (Recirculating still)
[2] = refractive index (Na D-line) (dimensionless); conditions: 101.33 kPa, Liquid, Standard Abbe refractometry

Question: With `ClC=C(Cl)Cl` [trichloroethene] as the compound, how does the mass density ([1]; 303.15 K) read?
Answer: Its mass density is 1451.3 ± 1.6 kg/m3.

Question: And the “vapor or sublimation pressure” value ([1]; 358.45 K)?
Answer: The value was 95.6 ± 1 kPa.

Question: What about the refractive index ([2]; 303.15 K) of the same compound?
Answer: The refractive index was 1.475 ± 0.0008.

Question: Which mass density ([1]; 298.15 K) does the source give for `CCCCCCO` [hexan-1-ol] here?
Answer: The mass density was 815.3 ± 0.8 kg/m3.

Question: What about the “vapor or sublimation pressure” value ([1]; 428.45 K) of the same compound?
Answer: The value was 95.6 ± 1 kPa.

Question: What about the refractive index ([2]; 298.15 K) of the same compound?
Answer: Its refractive index is 1.4157 ± 0.0008.

Question: For `ClC(Cl)=C(Cl)Cl` [tetrachloroethene], which mass density ([1]; 293.15 K) is on record?
Answer: The mass density was 1623 ± 1.8 kg/m3.

Question: And the “vapor or sublimation pressure” value ([1]; 392.15 K)?
Answer: The value was 95.6 ± 1 kPa.

Question: And the refractive index ([2]; 293.15 K)?
Answer: Its refractive index is 1.5058 ± 0.0008.

Question: For `ClC(Cl)C(Cl)Cl` [1,1,2,2-tetrachloroethane], which mass density ([1]; 293.15 K) is on record?
Answer: Its mass density is 1593 ± 1.8 kg/m3.

Question: What about the “vapor or sublimation pressure” value ([1]; 417.25 K) of the same compound?
Answer: The value was 95.6 ± 1 kPa.

Question: What about the refractive index ([2]; 293.15 K) of the same compound?
Answer: Its refractive index is 1.494 ± 0.0008.

Question: Which mass density ([1]; 293.15 K) does the source give for `ClCCCl` [1,2-dichloroethane] here?
Answer: The mass density was 1252.9 ± 1.3 kg/m3.

Question: What about the “vapor or sublimation pressure” value ([1]; 355.15 K) of the same compound?
Answer: Its value is 95.6 ± 1 kPa.

Question: And the refractive index ([2]; 293.15 K)?
Answer: The refractive index was 1.4196 ± 0.0008.
